Earlier results in patent US20230381356A1 (priority 2021, published 2023).

Experiments:
[1] = test system: Xenotropic murine leukemia virus
[2] = test system: Bovine Viral Diarrheal Virus
Virus = conditions: in <1 minute, final concentration of 1% (v/v)
Ebola Virus = conditions: saturated GITC solution ~3.5M alone
Pixuna virus = conditions: GITC alone at or near saturation (~3.5M)
SARS-CoV-2 = conditions: GITC alone, even in high concentrations

Molecule: Triton X-100
- inactivation of Pseudorabies Virus (Pseudorabies Virus): inactivate
- inactivation of HIV (HIV): inactivate
- inactivation of Xenotropic murine leukemia virus [1]: inactivate
- inactivation of Bovine Viral Diarrheal Virus [2]: inactivate
- log reduction (Virus): 4 log

Molecule: N#CS.N=C(N)N [GITC, Guanidine isothiocyanate]
- inactivation of Ebola Virus (Ebola Virus): does not inactivate
- inactivation of Pixuna virus (Pixuna virus): did not effectively inactivate
- inactivation of SARS-CoV-2 (SARS-CoV-2): 50-75%
